The values that follow are results of earlier work, collected in patent US20080176908A1, “Method of using squalene monooxygenase inhibitors to treat acne” (priority 2007, published 2008).

Each structure is given as a SMILES string.

The conditions of this data set: compared with 2.5% hydrocortisone; test details not given.
Turning to `CN(CC=CC#CC(C)(C)C)Cc1cccc2ccccc12` [terbinafine, N,6,6-trimethyl-N-(naphthalene-1-ylmethyl)hept-2-en-4-yn-1-amine], the anti-inflammatory ability result is given as “greater anti-inflammatory ability than 2.5% hydrocortisone”. Take `CN(C/C=C/c1ccccc1)Cc1cccc2ccccc12` [naftifine, (E)-N-cinnamyl-N-methyl-1-naphthalenemethylamine]: the anti-inflammatory ability result is given as “greater anti-inflammatory ability than 2.5% hydrocortisone”. In the case of `Cc1cc(C2CCCCC2)n(O)c(=O)c1` [Ciclopirox, 6-cylcohexyl-1-hydroxy-4-methyl-pyridin-2-one], the anti-inflammatory ability entry was “greater anti-inflammatory ability than 2.5% hydrocortisone”.
